These are literature values, as cited in patent publication US20060234993A1, “Use of androstane derivatives for enhancing physical performance” (priority 2005, published 2006).

Read-outs that look alike come from different tables or passages of the source.

Series [1] deals with mice.
The conditions of series [2]: in vivo.

As for `C[C@]12CC[C@@H](O)C[C@H]1CC[C@@H]1[C@@H]2CC[C@]2(C)C(=O)CC[C@@H]12` [Etiocholanolone, 3-alpha (beta)-hydroxy-5β-androstan-17-one], the body weight result in series [1] (normal mice) and in series [1] (obese mice) was “reduce body weight” each time. For `C[C@]12CC[C@H](O)CC1=CC[C@@H]1[C@@H]2CC[C@]2(C)C(=O)CC[C@@H]12` [DHEA, dehydroepiandrosterone], in series [2], the “estrogenic and androgenic side effects, including gynecomastia, water retention (edema), fat retention, prostate enlargement, acne, hair loss” value is “negative estrogenic and androgenic side effects”.
